This experiment relates to IL-2. Put plainly: PHA-IL2 (cell activation and cytokine analysis). The experiment is classed as cell-based. The note with it: 50% inhibition concentration class. The procedure, abridged: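 Cells were seeded in 96-well plates at 1.0-2.0×10^6 cells/ml in 150 ul of RPMI containing 0.5% fetal calf serum. Test compounds, at up to ≤20 uM, were preincubated with the cells for 30 minutes, then phytohemagglutinin (PHA) was added and cultures were stimulated for 24-48 hours at 37 degrees C./5% CO2. Supernatant IL-2 was then quantified by standard ELISA.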
Usually IC50 stands for the concentration needed to halve the response being measured. Low readings indicate inhibition by little substance, high ones a need for much substance. The compound `CC(C)Oc1ccccc1CCC1CCN(C(=O)COc2ccccc2-c2ccc(F)cc2O)CC1` [Compound 431] had an IC50 of less than 1000 nM.

In the case of `COc1cccc(CCC2CCN(C(=O)COc3cccnc3-c3ccc4c(ccn4C)c3)CC2)c1` [Compound 378], the 50% inhibitory concentration (IC50) was 1000 to 10000 nM.

`N#Cc1ccc(-c2ccccc2OCC(=O)N2CCC(CCc3ccc4c(c3)OCCO4)CC2)cc1` [Compound 291] showed an IC50 of less than 1000 nM.

For `N#Cc1ccc(-c2ccccc2OCC(=O)N2CCC(CCc3ccc4c(c3)OCO4)CC2)cc1` [Compound 166], the concentration for half-maximal inhibition (IC50) is less than 1000 nM.

`O=C(COc1ccccc1-c1ccncc1)N1CCC(CCc2ccc3c(c2)OCO3)CC1` [Compound 247] had a half-maximal inhibitory concentration (IC50) of 1000 to 10000 nM.

Regarding `O=C(COc1cccnc1-c1ccc2[nH]ccc2c1)N1CCC(CCc2ccccc2)CC1` [Compound 376], the half-inhibitory concentration (IC50) fell in the range of 1000 to 10000 nM.

Turning to `COc1cccc(CCC2CCN(C(=O)COc3ccc(S(N)(=O)=O)cc3-c3ccc(F)cc3O)CC2)c1` [Compound 386], the 50% inhibitory concentration (IC50) fell in the range of 1000 to 10000 nM.

For the compound `CC(C)Oc1cccc(CCC2CCN(C(=O)COc3ccccc3-c3ccc(C#N)cc3O)CC2)c1` [Compound 443], the half-maximal inhibitory concentration (IC50) was less than 1000 nM.

Consider `Cc1cnc(-c2ccccc2OCC(=O)N2CCC(CCc3ccccc3)CC2)cn1` [Compound 424], for which the concentration for half-maximal inhibition (IC50) lay in the range of 1000 to 10000 nM.

In turn, `CCOc1ccc(-c2ccccc2OCC(=O)N2CCC(CCc3ccc4c(c3)OCO4)CC2)cc1` [Compound 186] gave a half-maximal inhibitory concentration (IC50) of 1000 to 10000 nM.

In turn, `N#Cc1ccc(-c2cccnc2OCC(=O)N2CCC(CCc3ccc4c(c3)OCO4)CC2)cc1` [Compound 324] came in with an IC50 of 1000 to 10000 nM.

With `N#Cc1ccc(-c2ncccc2OCC(=O)N2CCC(CCc3ccc4c(c3)OCCO4)CC2)cn1` [Compound 335], the 50% inhibitory concentration (IC50) was in the range of 1000 to 10000 nM.

In turn, `N#Cc1ccc(-c2cnccc2OCC(=O)N2CCC(CCc3ccc4c(c3)OCO4)CC2)cc1` [Compound 327] returned a half-maximal inhibitory concentration (IC50) of 10000 to 50000 nM.

Consider `COc1cccc(CCC2CCN(C(=O)COc3ccc(C(F)(F)F)cc3-c3ccc(F)cc3O)CC2)c1` [Compound 353], for which the 50% inhibitory concentration (IC50) was less than 1000 nM.

Regarding `Cc1cc(F)ncc1-c1ncccc1OCC(=O)N1CCC(CCc2ccc3c(c2)OCCO3)CC1` [Compound 336], the half-inhibitory concentration (IC50) lay within 10000 to 50000 nM.

Regarding `O=C1COc2ccc(CCC3CCN(C(=O)COc4ccccc4-c4ccc(Cl)nc4)CC3)cc2N1` [Compound 259], the IC50 is less than 1000 nM.

On to `O=C(O)c1cccc(-c2ccccc2OCC(=O)N2CCC(CCc3ccc4c(c3)OCO4)CC2)c1` [Compound 158], for which the IC50 was 10000 to 50000 nM.

As to `O=C(COc1ccccc1-c1ccc(Cl)cc1Cl)N1CCC(CCc2ccc3c(c2)OCO3)CC1` [Compound 240], the half-maximal inhibitory concentration (IC50) lay in the range of 1000 to 10000 nM.

`CC(C)COc1cccc(-c2ccccc2OCC(=O)N2CCC(CCc3ccc4c(c3)OCO4)CC2)c1` [Compound 245] returned an IC50 of 1000 to 10000 nM.

On to `COc1cccc(CCC2CCN(C(=O)C[S+]([O-])c3ccccc3-c3ccccc3)CC2)c1` (stereo not shown) [Compound 313], for which the half-inhibitory concentration (IC50) lay within 10000 to 50000 nM.

`O=C(c1ccccc1)c1ccc(-c2ccccc2OCC(=O)N2CCC(CCc3ccc4c(c3)OCO4)CC2)cc1` [Compound 198] registered a half-inhibitory concentration (IC50) of less than 1000 nM.

On to `COc1cccc(CCC2CCN(C(=O)COc3cccnc3-c3ccc4c(cnn4C)c3)CC2)c1` [Compound 373], for which the IC50 fell in the range of 1000 to 10000 nM.

`COc1cccc(CCC2CCN(C(=O)CCc3ccccc3-c3ccccc3)CC2)c1` [Compound 221] had an IC50 of 10000 to 50000 nM.

With `CCc1ccc(-c2ccccc2OCC(=O)N2CCC(CCc3ccc4c(c3)OCO4)CC2)cc1` [Compound 156], the IC50 lay within 1000 to 10000 nM.

`CCc1ccc(OCC(=O)N2CCC(CCc3ccc4c(c3)OCO4)CC2)c(-c2ccc(C#N)cc2)c1` [Compound 274] displayed a half-maximal inhibitory concentration (IC50) of 1000 to 10000 nM.

As to `COc1cccc(CCC2CCN(C(=O)COc3cccnc3-c3ccc(C(F)(F)F)cc3O)CC2)c1` [Compound 363], the IC50 fell in the range of 1000 to 10000 nM.

Consider `O=C(CCc1ccccc1-c1ccc(F)cc1)N1CCC(CCc2ccc3c(c2)OCO3)CC1` [Compound 222], for which the IC50 fell in the range of 1000 to 10000 nM.

On to `N#Cc1ccc(OCC(=O)N2CCC(CCc3cccc(OCCN4CCOCC4)c3)CC2)c(-c2ccc(F)cc2O)c1` [Compound 354], for which the IC50 was in the range of 1000 to 10000 nM.

For the compound `NC(=O)c1ccc(OCC(=O)N2CCC(CCc3ccccc3)CC2)c(-c2ccc(F)cc2O)c1` [Compound 320], the IC50 was less than 1000 nM.

Compound `O=C(COc1ccccc1-c1ccccc1Oc1ccccc1)N1CCC(CCc2ccc3c(c2)OCO3)CC1` [Compound 216] returned a half-inhibitory concentration (IC50) of less than 1000 nM.

`N#Cc1ccc(-c2ccccc2OCC(=O)N2CCC(CCc3ccc4c(c3)OCCCO4)CC2)cc1` [Compound 231] displayed a half-inhibitory concentration (IC50) of less than 1000 nM.

`O=C(C[S+]([O-])c1ccccc1-c1ccccc1)N1CCC(CCc2ccccc2)CC1` (stereo not shown) [Compound 312] registered a concentration for half-maximal inhibition (IC50) of 10000 to 50000 nM.

Turning to `O=C(COc1ccccc1-c1ccc2[nH]ncc2c1)N1CCC(CCc2ccc3c(c2)OCCO3)CC1` [Compound 293], the IC50 is less than 1000 nM.

In turn, `O=C(COc1ccccc1-c1ccc(OC(F)(F)F)cc1)N1CCC(CCc2ccc3c(c2)OCO3)CC1` [Compound 178] showed an IC50 of 1000 to 10000 nM.

Compound `O=C(COc1ccccc1-c1ccccc1)N1CCC(CCc2ccc3c(c2)OC(F)(F)O3)CC1` [Compound 211] gave an IC50 of 1000 to 10000 nM.

In turn, `N#Cc1ccc(-c2cc(C(=O)NC3CCOCC3)ccc2OCC(=O)N2CCC(CCc3ccccc3)CC2)cc1` [Compound 368] gave an IC50 of 1000 to 10000 nM.

`CC(C)Oc1cccc(CCC2CCN(C(=O)COc3ccccc3-c3cc(C#N)ccc3OCc3ccccc3)CC2)c1` [Compound 440] registered a half-maximal inhibitory concentration (IC50) of less than 1000 nM.

`N#Cc1ccc(-c2cc(C#N)ccc2OCC(=O)N2CCC(CCc3cccc(OC(F)F)c3)CC2)cc1` [Compound 436]: the IC50 is less than 1000 nM.

`N#Cc1ccc(-c2ccccc2OCC(=O)N2CCC(CCc3ccc4c(c3)OCO4)CC2)cn1` [Compound 289] returned an IC50 of less than 1000 nM.

Take `O=C(COc1ccccc1-c1ccc2[nH]cnc2c1)N1CCC(CCc2cccc3ccccc23)CC1` [Compound 402]: the 50% inhibitory concentration (IC50) is less than 1000 nM.

As for `O=C(COc1ccccc1-c1ccc(F)cc1)N1CCC(CCc2ccc3c(c2)OCCO3)CC1` [Compound 294], the IC50 was 1000 to 10000 nM.

As to `O=C(COc1cccnc1-c1ccc(F)nc1)N1CCC(CCc2ccc3c(c2)OCCO3)CC1` [Compound 341], the half-inhibitory concentration (IC50) was 1000 to 10000 nM.

As for `COc1cccc(CCC2CCN(C(=O)CCc3ccccc3-c3ccc(C#N)cc3)CC2)c1` [Compound 227], the IC50 fell in the range of 1000 to 10000 nM.

`O=C(COc1ccccc1-c1ccc(F)cc1)N1CCC(CCc2ccc3c(c2)OCCCO3)CC1` [Compound 230]: the IC50 was less than 1000 nM.

`O=C(COc1ccccc1-c1cccc(OCc2ccccc2)c1)N1CCC(CCc2ccc3c(c2)OCO3)CC1` [Compound 217] returned a 50% inhibitory concentration (IC50) of 1000 to 10000 nM.

With `O=C(NCCO)c1cccc(-c2ccccc2OCC(=O)N2CCC(CCc3ccc4c(c3)OCO4)CC2)c1` [Compound 172], the IC50 lay in the range of 10000 to 50000 nM.

`COc1cccc(CCC2CCN(C(=O)COc3ccccc3-c3ccc4[nH]c(C)nc4c3)CC2)c1` [Compound 387] gave a half-inhibitory concentration (IC50) of 1000 to 10000 nM.

On to `NC(=O)c1cccc(-c2ccccc2OCC(=O)N2CCC(CCc3ccc4c(c3)OCO4)CC2)c1` [Compound 162], for which the IC50 lay within 1000 to 10000 nM.

`CCN(CC)C(=O)c1cccc(-c2ccccc2OCC(=O)N2CCC(CCc3ccc4c(c3)OCO4)CC2)c1` [Compound 185]: the half-maximal inhibitory concentration (IC50) fell in the range of 10000 to 50000 nM.

On to `Cn1ncc2cc(-c3ncccc3OCC(=O)N3CCC(CCc4cccc(OCCN5CCOCC5)c4)CC3)ccc21` [Compound 374], for which the IC50 lay within 10000 to 50000 nM.

`CCCC(Oc1ccccc1-c1ccccc1)C(=O)N1CCC(CCc2ccc3c(c2)OCO3)CC1` (stereo not shown) [Compound 154] registered a half-maximal inhibitory concentration (IC50) of 10000 to 50000 nM.

Compound `N#Cc1ccc(-c2cc(C(=O)NCc3ccccc3)ccc2OCC(=O)N2CCC(CCc3ccccc3)CC2)cc1` [Compound 366] displayed an IC50 of less than 1000 nM.

In turn, `O=C(COc1cccnc1-c1ccc2[nH]ncc2c1)N1CCC(CCc2ccncc2)CC1` [Compound 396] yielded a 50% inhibitory concentration (IC50) of 1000 to 10000 nM.

Turning to `Cc1cc2c(cc1CCC1CCN(C(=O)COc3ccccc3-c3ccc(C#N)cc3)CC1)OCO2` [Compound 298], the IC50 is less than 1000 nM.

Regarding `N#Cc1ccc(OCC(=O)N2CCC(CCc3ccc4c(c3)OCO4)CC2)c(-c2ccc(F)cc2O)c1` [Compound 346], the IC50 was less than 1000 nM.

On to `O=C(COc1ccccc1-c1ccc(F)cc1O)N1CCC(CCc2cccc(OCCN3CCOCC3)c2)CC1` [Compound 355], for which the half-maximal inhibitory concentration (IC50) was 1000 to 10000 nM.

`CC(C)Oc1cccc(CCC2CCN(C(=O)COc3ccccc3-c3ccc(C(=O)c4ccc(O)cc4)cc3)CC2)c1` [Compound 421] yielded an IC50 of 1000 to 10000 nM.

In the case of `CC1CC(CCc2ccccc2)CCN1C(=O)COc1ccccc1-c1ccc(C#N)cc1` (stereo not shown) [Compound 302], the concentration for half-maximal inhibition (IC50) was less than 1000 nM.

For `Cc1cccc(-c2ccccc2)c1OC(C)C(=O)N1CCC(CCc2cc(F)cc(F)c2)CC1` (stereo not shown) [Compound 229], the IC50 lay within 1000 to 10000 nM.

Regarding `CC(C)NC(=O)c1ccc(OCC(=O)N2CCC(CCc3ccccc3)CC2)c(-c2ccc(C#N)cc2)c1` [Compound 317], the IC50 was less than 1000 nM.

Compound `N#Cc1ccc(OCC(=O)N2CCC(CCc3cccc(OC4CCCC4)c3)CC2)c(-c2ccc(F)cc2O)c1` [Compound 409] displayed an IC50 of less than 1000 nM.

Consider `O=C(COc1ccc(C(F)(F)F)cc1-c1ccc(F)cc1O)N1CCC(CCc2cccc(OCCN3CCOCC3)c2)CC1` [Compound 356], for which the 50% inhibitory concentration (IC50) lay within 1000 to 10000 nM.

`CCOc1ccc(CCC2CCN(C(=O)COc3ccccc3-c3ccc(C(=O)c4ccccc4)cc3)CC2)cc1` [Compound 311] had an IC50 of less than 1000 nM.

With `CC(C)Oc1ccc(CCC2CCN(C(=O)COc3ccccc3-c3ccc(F)cc3O)CC2)cc1` [Compound 432], the half-maximal inhibitory concentration (IC50) was less than 1000 nM.

`C#CCOc1cccc(CCC2CCN(C(=O)COc3ccc(C#N)cc3-c3ccc(C(=O)c4ccccc4)cc3)CC2)c1` [Compound 418] displayed an IC50 of less than 1000 nM.

In turn, `O=C1NCCOc2ccc(CCC3CCN(C(=O)COc4ccccc4-c4ccccc4)CC3)cc21` [Compound 284] returned an IC50 of less than 1000 nM.

For `COc1cccc(-c2ccccc2OCC(=O)N2CCC(CCc3ccc4c(c3)OCO4)CC2)c1` [Compound 163], the IC50 fell in the range of 1000 to 10000 nM.
